# Results reported in publication PMC6108835, “Target-Based Discovery of an Inhibitor of the Regulatory Phosphatase PPP1R15B” (Cell, 2018).
# Experiments:
# [1] = molecular target: T1, R15A-PP1c holophosphatase (R15A^325-636-PP1c) (Homo sapiens, UniProt O75807); assay: Holophosphatase SPR, compounds binding to reconstituted R15A-PP1c; conditions: holophosphatase reconstituted on SA chip; 20°C; mean ± SD; read-out: KD, steady-state affinity for R15A-PP1c
# T1 construct: cDNAs encoding amino acids 325-636 of R15A and 340-698 of R15B were cloned into pMAL-c5x; made in house; host or cells: R15A: E. coli BL21-Gold (DE3) pLysS; bio-PP1c: Sf9 insect cells (baculovirus)
# T1 sequence (O75807 325-636, stated change not applied): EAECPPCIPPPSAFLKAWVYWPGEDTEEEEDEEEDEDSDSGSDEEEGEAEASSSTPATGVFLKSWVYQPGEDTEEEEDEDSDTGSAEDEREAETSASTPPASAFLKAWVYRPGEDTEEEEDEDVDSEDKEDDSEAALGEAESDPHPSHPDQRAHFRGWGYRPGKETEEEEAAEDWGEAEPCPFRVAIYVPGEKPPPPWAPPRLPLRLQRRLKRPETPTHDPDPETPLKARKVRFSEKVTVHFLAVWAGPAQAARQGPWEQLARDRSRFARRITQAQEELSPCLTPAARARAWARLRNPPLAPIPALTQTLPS
# T1 sequence (P36873 1-322 partner): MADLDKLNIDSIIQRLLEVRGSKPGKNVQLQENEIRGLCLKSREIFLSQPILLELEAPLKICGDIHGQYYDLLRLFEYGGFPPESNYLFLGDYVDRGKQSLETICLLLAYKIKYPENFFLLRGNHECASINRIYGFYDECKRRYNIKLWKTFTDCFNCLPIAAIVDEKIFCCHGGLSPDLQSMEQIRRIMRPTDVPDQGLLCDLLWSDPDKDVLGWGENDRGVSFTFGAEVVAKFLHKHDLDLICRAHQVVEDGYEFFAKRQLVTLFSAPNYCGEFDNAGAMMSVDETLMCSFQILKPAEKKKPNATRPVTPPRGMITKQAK
# Method: (§1) Small molecules were stored as 50 mM stock solutions in 100% DMSO. […] If necessary the concentration range was adjusted to accurately determine the KD depending on the initial results. […] This was followed by 1 min stabilization period, to wash off any unspecific binding. […] After each dilution series, the surface was regenerated using 3 M NaCl for 90 s. […] In order to be able to correct for small variations in DMSO concentration between samples, eight solvent samples ranging from 0.06 to 8% DMSO were injected every 50th cycle. The flow cell temperature was 20°C.
# [2] = test system: HeLa cells; assay: Assessment of translation rates (35S-methionine), HeLa cells; assay type: cell-based, human; conditions: HeLa cells
# Method: HeLa or MEF cells (90,000 cells/mL) were plated in 12-well plates (1 mL/well). The following day cells were treated as indicated; the medium was removed, fresh medium containing compound added and incubated at 37°C for the times indicated. The time course was performed in reverse order to facilitate labeling all samples at the same time. After the treatment the cells were labeled with 100 μCi/mL ^35S-methionine (Hartmann Analytic) for 10 min at 37°C (300 μL fresh medium containing 3 μL ^35S-methionine was added to each well). Note that cells were not starved in methionine-free media before labeling with ^35S-methionine for monitoring protein synthesis. The labeled cells were then washed twice with ice-cold PBS and lysed in 120 μL Laemmli Buffer. Lysates were transferred to 1.5 mL eppendorf tubes, boiled at 95°C for 5 min, sonicated and resolved on Bolt SDS-PAGE 4%–12% Bis-Tris gels (ThermoFisher Scientific). Gels were then stained with InstantBlue (Expedeon) and after the gels had been imaged they were transferred to a 20% ethanol, 7% acetic acid, 4% glycerol solution for 10 min. This was to prevent the gels from cracking while drying. The gels were transferred to filter paper and dried using a gel dryer. The gels were then exposed to a Storage Phosphor Screen (GE Healthcare) and analyzed by phosphorimaging using a Typhoon Imager Scanner (GE Healthcare).
# [3] = Body weight gain of wild-type mice under chronic treatment; assay type: in vivo, mouse; conditions: various doses once a day (2 mg/kg for 10 weeks; 15 days at indicated doses)
# Method: The acetate salts of Raphin1 or GBZ were dissolved in water and sonicated for 10 min. The solution was aliquoted and kept at −20°C until use. Once thawed a tube was kept at 4°C and used within 24 hr. The compounds were administered by oral gavage.
# Raphin1 was administered at 2 mg/kg (unless otherwise specified). Mice received a single dose or were treated chronically – one time per day. Control mice were treated with vehicle (water) only.
# Mice were weighted on a dedicated scale (A&D, FX3000iWP). 4 weeks old treatment and test naive C57BL/6J males and females (Figure 6B) and 2 months old treatment and test naive C3H/B6 males (Figure S6A) were used.
# [4] = Glucose tolerance test in wild-type mice; assay type: in vivo, mouse; conditions: 2 mg/kg daily for 8 weeks
# Method: Treatment- and test-naive 4 weeks old C3H/B6 males were used. Raphin1 was administered to mice daily for 8 weeks before the test. After the overnight 14 hr starvation mice were injected intraperitoneally with D-glucose (Sigma-Aldrich) at 2 g glucose/kg body weight. Right before and at the indicated time points after the injection blood samples were collected from the tail vein and the blood glucose concentration was determined using The Accu-Chek Aviva Blood Glucose Meter (Roche).
# [5] = test system: brains of R15a −/− mice; assay: Monitoring translation rates in vivo, brains of R15a −/− mice; set-up: species or system mouse; conditions: 40 mg/kg
# Method: 3 months old treatment- and test-naive C57BL/6J males were treated as indicated. 30 min before the end of treatment mice were injected intraperitoneally with 0.75 mCi/kg radioactive label – 75% ^35S-methionine + 25% ^35S-cystine (Hartmann Analytic). At the end of treatment mice were culled by cervical dislocation, brains were extracted, fresh-frozen in liquid nitrogen and kept at −80°C until use. Tissue was homogenized and lysed in Laemmli Buffer (1 mL for 0.5 mg tissue). Lysates were boiled at 95°C for 5 min, sonicated and resolved on Bolt SDS-PAGE 4%–12% Bis-Tris gels (ThermoFisher Scientific). Gels were then stained with InstantBlue (Expedeon) and after the gels had been imaged they were transferred to a 20% ethanol, 7% acetic acid, 4% glycerol solution for 10 min. This was to prevent the gels from cracking while drying. The gels were transferred to filter paper and dried using a gel dryer. The gels were then exposed to a Storage Phosphor Screen (GE Healthcare) and analyzed by phosphorimaging using a Typhoon Imager Scanner (GE Healthcare).
# [6] = molecular target: R15A (Homo sapiens, UniProt O75807); assay: Limited trypsin digestion of R15A; set-up: cDNAs encoding amino acids 325-636 of R15A and 340-698 of R15B were cloned into pMAL-c5x; made in house; host or cells: E. coli BL21-Gold (DE3) pLysS; conditions: R15 3 μM, compound 100 μM, trypsin 5 nM, 5 min, 22°C
# Chain of R15A (O75807 325-636, stated change not applied): as the sequence (O75807 325-636, stated change not applied) above
# Method: Reactions were initiated by addition of 5 nM of trypsin from bovine pancreas (Sigma-Aldrich), made up in PBS, and allowed to proceed for 5 min at 22°C, with shaking at 350 rpm. […] Proteins were visualized by staining with InstantBlue Protein Stain (Expedeon).
# [7] = molecular target: PP1c (Homo sapiens, UniProt P36873); assay: SPR, compounds binding to PP1c alone immobilized on streptavidin chip; set-up: cDNA encoding for human PP1cγ (aa 1-322) was cloned into two baculovirus transfer vectors; made in house; host or cells: Sf9 insect cells (baculovirus); conditions: PP1c immobilized on SA chip
# Chain of PP1c (P36873 1-322): as the sequence (P36873 1-322 partner) above
# Method: as §1
smiles,measurement,setting,value
"[H]/N=C(\N)NN=Cc1cccc(Cl)c1Cl [Raphin1, (E)-2-(2,3-dichlorobenzylidene)hydrazine-1-carboximidamide]",Kd,[1],977 nM
same,Protein synthesis (in words),[2]; 20 μM,persistent inhibition
same,Raphin1-induced eIF2α phosphorylation and translation attenuation,[2]; Raphin1 10 μM in the presence of the R15A inhibitor GBZ 10 μM,persisted
same,Protein synthesis (in words),"[2]; unstressed, 10 μM",decreased
same,Adverse effects on weight gain,[3],no obvious adverse effects
same,Adverse effects on glucose tolerance,[4],no obvious adverse effects
same,Translation recovery in the brains (in words),[5],recovery was reduced
same,"Protease sensitivity of R15A (limited proteolysis, conformational change)",[6],no effect
same,Binding to PP1c alone (in words),[7],did not bind
